Molecules are shown by their SMILES. Values after ≈ are worked out from the molar mass of the structure shown.

Type in all cases: functional
The test system of one assay is Enterococcus faecium. The assay is described as follows: Antibacterial activity against Enterococcus faecium assessed as inhibition of bacterial growth.
The subject of assay [1] is Staphylococcus aureus. The assay is described as follows: Antibacterial activity against Methicillin-resistant Staphylococcus aureus assessed as bacterial growth inhibition.
In assay [2] the test system is Staphylococcus epidermidis. The assay is described as follows: Antibacterial activity against Methicillin-sensitive Staphylococcus epidermidis assessed as bacterial growth inhibition.
Assay [3] has as its system Staphylococcus epidermidis. The assay is described as follows: Antibacterial activity against Methicillin-resistant Staphylococcus epidermidis assessed as bacterial growth inhibition.
Assay [4] has as its system Staphylococcus aureus. The assay is described as follows: Antibacterial activity against Methicillin-sensitive Staphylococcus aureus assessed as bacterial growth inhibition.
The subject of another assay is Enterococcus faecalis. The assay is described as follows: Antibacterial activity against Enterococcus faecalis assessed as bacterial growth inhibition.
Assay [5] relates to Staphylococcus epidermidis. The assay is described as follows: Antibacterial activity against Staphylococcus epidermidis assessed as reduction in microbial growth.
In another assay the test system is Escherichia coli. The assay is described as follows: Antibacterial activity against Escherichia coli MTCC 16521 assessed as reduction in microbial growth.
The test system of a further assay is Bacillus subtilis. The assay is described as follows: Antibacterial activity against Bacillus subtilis MTCC 441 assessed as reduction in microbial growth.
For another assay, the system named is Aspergillus niger. The assay is described as follows: Antifungal activity against Aspergillus niger MTCC 8189 assessed as inhibition of fungal growth.
In a further assay the test system is Candida albicans. The assay is described as follows: Antifungal activity against Candida albicans MTCC 227 assessed as inhibition of fungal growth.

Consider `CO/N=C1/C(=O)N(Cc2cn(CC(=O)N3CCC[C@@H]4CN(c5c(F)cc6c(=O)c(C(=O)O)cn(C7CC7)c6c5OC)C[C@@H]43)nn2)c2ccccc21`, for which the MIC (in the assay with Enterococcus faecium; in the assay with Staphylococcus aureus [1]; in assay [2]; in assay [3]; in the assay on Staphylococcus aureus [4]; with Enterococcus faecalis) was 0.06 µg/mL (≈ 0.0859 µM) throughout.

`COc1c(N2C[C@H]3CCCN(C(=O)Cn4cc(CN5C(=O)C(=O)c6ccccc65)nn4)[C@H]3C2)c(F)cc2c(=O)c(C(=O)O)cn(C3CC3)c12`: the MIC (in the assay with Enterococcus faecium; in the assay with Staphylococcus aureus [1]; in assay [2]; in [3]; in the assay with Staphylococcus aureus [4]; in the assay with Enterococcus faecalis) was 0.06 µg/mL (≈ 0.0896 µM) throughout.

As to `O=C(NCc1cn(CCCCn2cc(CNC(=O)Nc3ccc(F)cc3)nn2)nn1)Nc1ccc(F)cc1`, the MIC in assay [5] worked out at 6 µM; in the assay on Escherichia coli it was 6 µM; with Bacillus subtilis it was 6 µM; in the assay on Aspergillus niger, 6 µM (≈ 3.15 µg/mL); in the assay on Candida albicans, 6 µM (≈ 3.15 µg/mL).

`O=C(NCc1cn(CCCn2cc(CNC(=O)Nc3ccc(Cl)cc3)nn2)nn1)Nc1ccc(Cl)cc1`: the minimal inhibitory concentration (MIC) in assay [5] came to 6 µM; in the assay on Escherichia coli, 6 µM; in the assay on Bacillus subtilis, 6 µM; with Aspergillus niger, 6 µM (≈ 3.26 µg/mL); with Candida albicans, 6 µM (≈ 3.26 µg/mL).

Take `COc1c(N2C[C@H]3CCCN(C(=O)Cn4cc(CN5C(=O)C(=O)c6c(F)cccc65)nn4)[C@H]3C2)c(F)cc2c(=O)c(C(=O)O)cn(C3CC3)c12`: the minimum inhibitory concentration (MIC) (in the assay on Enterococcus faecium; in the assay with Staphylococcus aureus [1]; in [2]; in [3]; in the assay on Staphylococcus aureus [4]; with Enterococcus faecalis) was 0.06 µg/mL (≈ 0.0873 µM) each time.

For `O=C(NCc1cn(CCCCn2cc(CNC(=O)Nc3ccc(Cl)cc3)nn2)nn1)Nc1ccc(Cl)cc1`, the MIC is 6 µM in [5]; 6 µM with Escherichia coli; 6 µM with Bacillus subtilis; 6 µM (≈ 3.34 µg/mL) in the assay with Aspergillus niger; 6 µM (≈ 3.34 µg/mL) in the assay on Candida albicans.

As to `CO/N=C1/C(=O)N(Cc2cn(CC(=O)N3CCC[C@@H]4CN(c5c(F)cc6c(=O)c(C(=O)O)cn(C7CC7)c6c5OC)C[C@@H]43)nn2)c2cccc(F)c21`, the MIC (in the assay on Enterococcus faecium; in the assay on Staphylococcus aureus [1]; in [2]; in assay [3]; with Staphylococcus aureus [4]; with Enterococcus faecalis) was 0.06 µg/mL (≈ 0.0837 µM) in each case.

With `O=C(NCc1cn(CCCCCn2cc(CNC(=O)Nc3ccc(F)cc3)nn2)nn1)Nc1ccc(F)cc1`, the minimum inhibitory concentration (MIC) in assay [5] was 6 µM; in the assay with Escherichia coli it was 6 µM; in the assay with Bacillus subtilis, 6 µM; in the assay with Aspergillus niger it was 6 µM (≈ 3.23 µg/mL); in the assay with Candida albicans, 6 µM (≈ 3.23 µg/mL).

For `COc1ccc(NC(=O)NCc2cn(CCCCCCn3cc(CNC(=O)Nc4ccc(OC)cc4)nn3)nn2)cc1`, the MIC in [5] is 6 µM; with Escherichia coli, 6 µM; in the assay with Bacillus subtilis, 6 µM; in the assay on Aspergillus niger it was 6 µM (≈ 3.46 µg/mL); in the assay on Candida albicans it was 6 µM (≈ 3.46 µg/mL).

For `COc1ccc(NC(=O)NCc2cn(CCCCn3cc(CNC(=O)Nc4ccc(OC)cc4)nn3)nn2)cc1`, the MIC was 6 µM in assay [5]; 6 µM in the assay with Escherichia coli; 6 µM in the assay on Bacillus subtilis; 5 µM (≈ 2.74 µg/mL) with Aspergillus niger; 6 µM (≈ 3.29 µg/mL) in the assay with Candida albicans.

On to `COc1c(N2C[C@H]3CCCN(C(=O)Cn4cc(CN5C(=O)C(=O)c6ccc(F)cc65)nn4)[C@H]3C2)c(F)cc2c(=O)c(C(=O)O)cn(C3CC3)c12`, for which the MIC (in the assay with Enterococcus faecium; with Staphylococcus aureus [1]; in [2]; in [3]; in the assay on Staphylococcus aureus [4]; with Enterococcus faecalis) was 0.06 µg/mL (≈ 0.0873 µM) each time.

For `CO/N=C1/C(=O)N(Cc2cn(CC(=O)N3CCC[C@@H]4CN(c5c(F)cc6c(=O)c(C(=O)O)cn(C7CC7)c6c5OC)C[C@@H]43)nn2)c2cc(C)ccc21`, the MIC (in the assay with Enterococcus faecium; in the assay on Staphylococcus aureus [1]; in assay [2]; in assay [3]; in the assay with Staphylococcus aureus [4]; with Enterococcus faecalis) was 0.06 µg/mL (≈ 0.0842 µM) each time.

Regarding `CO/N=C1/C(=O)N(Cc2cn(CC(=O)N3CCC[C@@H]4CN(c5c(F)cc6c(=O)c(C(=O)O)cn(C7CC7)c6c5OC)C[C@@H]43)nn2)c2cc(F)ccc21`, the minimum inhibitory concentration (MIC) (in the assay on Enterococcus faecium; in the assay with Staphylococcus aureus [1]; in [2]; in [3]; in the assay on Staphylococcus aureus [4]; in the assay with Enterococcus faecalis) was 0.06 µg/mL (≈ 0.0837 µM) throughout.

Turning to `COc1ccc(NC(=O)NCc2cn(CCCCCn3cc(CNC(=O)Nc4ccc(OC)cc4)nn3)nn2)cc1`, the MIC was found to be 6 µM in assay [5]; 6 µM in the assay with Escherichia coli; 6 µM in the assay on Bacillus subtilis; 6 µM (≈ 3.38 µg/mL) with Aspergillus niger; 6 µM (≈ 3.38 µg/mL) with Candida albicans.

In the case of `COc1ccc(NC(=O)NCc2cn(Cc3cccc(Cn4cc(CNC(=O)Nc5ccc(OC)cc5)nn4)c3)nn2)cc1`, the MIC in assay [5] was 6 µM; in the assay with Escherichia coli, 6 µM; in the assay with Bacillus subtilis, 6 µM; in the assay with Aspergillus niger, 6 µM (≈ 3.58 µg/mL); with Candida albicans it was 6 µM (≈ 3.58 µg/mL).

Take `O=C(NCc1cn(CCCCCCn2cc(CNC(=O)Nc3ccc(Cl)cc3)nn2)nn1)Nc1ccc(Cl)cc1`: the MIC in [5] came out at 6 µM; in the assay with Escherichia coli, 6 µM; in the assay on Bacillus subtilis, 6 µM; in the assay with Aspergillus niger, 6 µM (≈ 3.51 µg/mL); in the assay with Candida albicans, 6 µM (≈ 3.51 µg/mL).

Turning to `O=C(NCc1cn(Cc2cccc(Cn3cc(CNC(=O)Nc4ccc(Cl)cc4)nn3)c2)nn1)Nc1ccc(Cl)cc1`, the MIC was found to be 6 µM in assay [5]; 6 µM with Escherichia coli; 6 µM in the assay with Bacillus subtilis; 6 µM (≈ 3.63 µg/mL) in the assay with Aspergillus niger; 6 µM (≈ 3.63 µg/mL) with Candida albicans.

With `O=C(NCc1cn(CCCCCCn2cc(CNC(=O)Nc3ccc(F)cc3)nn2)nn1)Nc1ccc(F)cc1`, the MIC in assay [5] turned out to be 6 µM; in the assay on Escherichia coli, 6 µM; with Bacillus subtilis, 6 µM; in the assay on Aspergillus niger, 6 µM (≈ 3.32 µg/mL); in the assay with Candida albicans it was 6 µM (≈ 3.32 µg/mL).

As to `O=C(NCc1cn(CCCCCn2cc(CNC(=O)Nc3ccc(Cl)cc3)nn2)nn1)Nc1ccc(Cl)cc1`, the MIC was found to be 6 µM in assay [5]; 6 µM in the assay on Escherichia coli; 6 µM with Bacillus subtilis; 6 µM (≈ 3.43 µg/mL) with Aspergillus niger; 6 µM (≈ 3.43 µg/mL) with Candida albicans.

As to `COc1ccc(NC(=O)NCc2cn(CCCn3cc(CNC(=O)Nc4ccc(OC)cc4)nn3)nn2)cc1`, the MIC in assay [5] came to 6 µM; in the assay on Escherichia coli, 6 µM; in the assay with Bacillus subtilis it was 6 µM; in the assay on Aspergillus niger, 6 µM (≈ 3.21 µg/mL); with Candida albicans, 6 µM (≈ 3.21 µg/mL).

For the compound `O=C(NCc1cn(CCCn2cc(CNC(=O)Nc3ccc(F)cc3)nn2)nn1)Nc1ccc(F)cc1`, the MIC in assay [5] amounted to 6 µM; in the assay on Escherichia coli it was 6 µM; in the assay with Bacillus subtilis, 6 µM; in the assay on Aspergillus niger, 6 µM (≈ 3.06 µg/mL); with Candida albicans, 6 µM (≈ 3.06 µg/mL).

Consider `COc1c(N2C[C@H]3CCCN(C(=O)Cn4cc(CN5C(=O)C(=O)c6ccc(C)cc65)nn4)[C@H]3C2)c(F)cc2c(=O)c(C(=O)O)cn(C3CC3)c12`, for which the MIC (in the assay on Enterococcus faecium; in the assay on Staphylococcus aureus [1]; in assay [2]; in assay [3]; in the assay with Staphylococcus aureus [4]; in the assay with Enterococcus faecalis) was 0.06 µg/mL (≈ 0.0878 µM) in each case.

Turning to `O=C(NCc1cn(Cc2cccc(Cn3cc(CNC(=O)Nc4ccc(F)cc4)nn3)c2)nn1)Nc1ccc(F)cc1`, the MIC in [5] was 6 µM; in the assay on Escherichia coli it was 6 µM; with Bacillus subtilis, 6 µM; with Aspergillus niger it was 6 µM (≈ 3.44 µg/mL); in the assay on Candida albicans, 6 µM (≈ 3.44 µg/mL).

The MIC is the lowest concentration found to suppress growth.

Source of the values: ChEMBL document CHEMBL5634077, “Recent advances in 1,2,3- and 1,2,4-triazole hybrids as antimicrobials and their SAR: A critical review” (2023).
